Source: US20140348807A1, “PROCESS FOR THE PREPARATION OF A BIOMASS COMPRISING PLANTARICIN AND USES THEREOF IN MEDICAL FIELD” (GIULIANI S.p.A., priority 2010, published 2014)
Read-outs that look alike come from different tables or passages of the source. Ends that are not written are not given here.

Key:
Caco-2/TC7 cells [1] = test: TEER of Caco-2/TC7 cell layer; assay type: cell-based, Human; conditions: for negative effect of IFN-γ on Caco-2/TC7 TEER with added plantaricin A: IFN-γ 1000 U/ml + plantaricin A 2.5 μg/ml
Experimental: For TEER determination Caco-2/TC7 cells have been inoculated (7.5×10^4 cells/ml) in a 24 well plate and a polyethylene filter (0.4 μm pore). Before the treatment, the cells have been incubated for 21 days at 37° C. Treatments with various preparations have been carried out for 18, 24 and 48 hours. Integrity of the cellular layer therefore has been determined by means of TEER determination.

Caco-2/TC7 cells [2] = test: Caco-2/TC7 cell viability, Neutral Red absorption assay; assay type: cell-based, Human; conditions: for viability of Caco-2/TC7 cells (Neutral Red) vs DMEM negative control: 2.5 μg/ml, incubation 24-72 hours; for negative effect of IFN-γ on Caco-2/TC7 viability under simultaneous plantaricin A treatment: IFN-γ 1000 U/ml + plantaricin A 2.5 μg/ml
Experimental: Human Caco-2/TC7 cells (TC7 clone) have been cultured in Dulbecco medium (DMEM), added with calf serum (10%), not essential amino acids (1%), gentamycin/streptomycin (50 μg/ml), glutamine (2 mM) and 4-2-hydroxyethyl-1-piperazinil-etansulfonic acid (1%) (Di Cagno et al., 2010. Quorum sensing in sourdough Lactobacillus plantarum DC400: induction of plantaricin A (PlnA) under co-cultivation with other lactic acid bacteria and effect of PlnA on bacterial and Caco-2 cells. Proteomics in press). Cell viability has been determined with absorption assay using Neutral Red dye (Balls et al., 1987. Approaches to validation alternative methods in toxicology. In: Goldber A. M. (Ed). N.Y. Academic Press pp. 45-58). After 24-72 hour treatment with various preparations, cells have been washed with PBS buffer and incubated for 4 hours at 37° C. with a Neutral Red solution (33 mg/I). Successively, the cells have been again washed with PBS buffer and treated with lysis solution (50% ethanol in 1% acetic acid containing water). Plate reading has been carried out using Novapath plate reader (Biorad, Hercules, Calif.). Di Cagno et al., 2010. Quorum sensing in sourdough Lactobacillus plantarum DC400: induction of plantaricin A (PlnA) under co-cultivation conditions with other lactic acid bacteria and effect of PlnA on bacterial and Caco-2 cells. Proteomics in press).

[3] = tested on: human NCTC 2544 keratinocyte cell line; assay type: cell-based; conditions: 0.1 μg/ml
Experimental: The used cell line is a human NCTC 2544 keratinocyte cell line (Perry, V. P., Sanford, K. K., Evans, V. J., Hyatt, G. W., Earle, W. R., 1957. Establishment of clones of epithelial cells from human skin. J Natl Cancer Inst. 18 (5): 709-717) cultured in sterile flasks, incubated at 37° C. in humid atmosphere at 5% CO2 in MEM (Minimum Essential Medium) culture medium added with 10% bovine calf serum (FBS), 2 mM L-glutamine, 1% not essential amino acids, in the presence of 1% penicillin and streptomycin. Cells grow in vitro adhering to culture plate surface as a monolayer.
The experiment firstly involves the development of confluent cell monolayer. Successively the cut is carried out and the generated “gap” is observed using microscope as cells gradually moving repair the damage.
NCTC 2544 cells are plated and cultured at 37° C., with 5% CO2 for 24 hours.
After 24 hours complete growth medium is replaced with serum free medium to avoid the serum effect on cell proliferation and cells are incubated for further 24 hours at 37° C., 5% CO2.
After 24 hours the cell monolayer is mechanically damaged by mild 200 μl pipette tip brushing tracking a ˜1 mm wide horizontal line. Then the monolayer is washed and after addition of substances to be tested, the plates are incubated at 37° C., 5% CO2 for 72 hours.
the effect of the substances on cell motility is evaluated using phase contrast reverse microscope, acquiring images at various opportunely selected analysis times.
the damage remedy is determined measuring the clear area between the cut two migration fronts at 0, 4, 8, 12, 24, 48, 72 hours after the cut, using an image processing software (Leica application Suite).
After the cut on the cellular monolayer has been carried out using a 200 μl pipette tip and the cells within the gap between two cut lines completely removed, said cells are treated with synthetic and co-culture deriving Plantaricin at the following concentrations: 0.1-1-10 μg/ml. Also positive and negative controls (connectivine at 100 μg/ml) have been duplicate tested.
Images on the same cut area have been acquired at time 0 and after 4, 8, 12, 24, 48 and 72 hours, to monitor the cell migration in the cut area.

[4] = tested on: Cultured human keratinocytes; test: Wound healing assay on cultured human keratinocyte monolayer (Example 2); assay type: cell-based; conditions: 1 hour incubation with stimulus (Plantaricin A 2.5 μg/ml), then 24 hours
Experimental: Cultured human keratinocytes have been incubated with Plantaricin A (2.5 μg/ml) or Plantaricin A containing biomass for 1 hour.
At the end of the incubation, the cells have been washed and culture medium restored.
The test consists of carrying out a mechanical interruption in the continuity of the cellular monolayer in order the treatment effect in favouring or not the keratinocyte ability to migrate beyond the damage border and therefore “heal the lesion” to be evaluated.
To this end the keratinocyte monolayer, treated as above described, was incubated over aditional 24 hours after stimulus application and then fixed and stained using ematoxylin/eosin staining. Images have been observed with light microscope using 5× objective.
For each image maximum cell migration limits and distance or gap there between have been detected and calculated, respectively (FIG. 9-10).

Row | Substance | negative effect of IFN-γ on Caco-2/TC7 TEER with added plantaricin A (Caco-2/TC7 cells [1]) | viability of Caco-2/TC7 cells (Neutral Red) vs DMEM negative control (Caco-2/TC7 cells [2]) | negative effect of IFN-γ on Caco-2/TC7 viability under simultaneous plantaricin A treatment (Caco-2/TC7 cells [2]) | percentage of migrated cells in comparison to the positive control ([3]; 1st of six time values (4 h)) | percentage of migrated cells in comparison to the positive control ([3]; 2nd of six time values (8 h)) | percentage of migrated cells in comparison to the positive control ([3]; 3rd of six time values (12 h)) | percentage of migrated cells in comparison to the positive control ([3]; 4th of six time values (24 h)) | percentage of migrated cells in comparison to the positive control ([3]; 5th of six time values (48 h)) | percentage of migrated cells in comparison to the positive control ([3]; 6th of six time values (72 h)) | TEER values for Caco-2/TC7 cells (Caco-2/TC7 cells [1]; 2.5 μg/ml, 24 and 48 hours, vs DMEM) | gap between the wound margins vs control cells [4]
1 | KSSAYSLQMGATAIKQVKKLFKKWGW [chemically synthesized plantaricin A] | eliminated also in this case the negative effects | Same result | completely eliminated | 158.30% | 115.15% | 124.32% | 141.82% | 141.91% | 128.51% | – | –
2 | KSSAYSLQMGATAIKQVKKLFKKWGW [purified plantaricin A] | eliminated also in this case the negative effects | remarkably increased | completely eliminated | – | – | – | – | – | – | remarkable increase | –
3 | hyaluronic acid | – | – | – | – | – | – | – | – | – | – | lesion gap is narrower than for not treated cells
